Results: patent US20150212068A1, “Cholyl-L-Lysyl-Fluorescein Assay” (Novassay SA, priority 2012, published 2015)
Entries after “also recorded” stand apart in the source; their conditions may differ. Marks after values point to notes of the source that are not given here.

Assays:
[1] = Stability of CLF in whole human blood at 37° C. (Test 1), HPLC-MS/MS; type: in vitro ADME; conditions: for CLF concentration: whole human blood spiked 100 ng/ml, mean ± SEM (n = 2); for CLF remaining: whole human blood, vs To
Experimental: Fifty microliters (50 μl) of the working solution of CLF were added to 5 ml of human EDTA blood. The final concentration of CLF in blood was of 100 ng/ml. One aliquot of 1 ml of blood was taken (To) and the remaining solution was incubated at 37° C. in a water bath for 30 min, 120 min and 24 h. At the end of each incubation time, 1 ml of blood was taken and plasma was prepared by centrifugation of samples at 2000 g (4° C.) for 10 min. Two equal aliquots of 200 μl were prepared and stored at −70° C. until further analysis. […] Thus, a stock solution of IS at 100 μg/ml in acetonitrile was 50-fold diluted in acetonitrile in order to obtain a final concentration of 2 μg/ml. Then, 200 μl of this solution were added to each plasma sample in order to precipitate the proteins. Samples were vortexed/mixed and centrifuged 5 min at 20,000 g (4° C.). After centrifugation, the clear supernatant (around 250 μl) was transferred into 1.2 ml HPLC glass vials and sealed. Samples were placed into the refrigerated autosampler and 20 μl were injected into the HPLC-MS/MS system. Test samples were injected twice. […] The injected volume of sample was 20 μl and the “full loop” mode was applied. The temperature of the analytical column was kept at 30° C. CLF and its IS were separated on an Acclaim 120 C18 column (5 μm, 2.1×100 mm, Dionex) by elution with a linear gradient of acetonitrile in water as described in Table 6. An ion trap mass spectrometer equipped with an ESI interface was operated in the positive ionization mode. For each compound, the most abundant ion formed in MS was selected for MS/MS fragmentations. In order to increase the sensitivity and the specificity of the method, the MRM mode was selected. The most specific daughter ions formed in MS/MS were used for quantification.

[2] = Stability of buffer-based CLF standards after 4 weeks storage at 2-8° C., CLF ELISA; type: physicochemical; conditions: for mean OD, fresh: freshly made; for decrease in immunoreactivity: buffer-based CLF standards
Experimental: These conditions were used for all assays described in Phase 2a (above) and Phase 2b (below). See Appendix B and C for buffer and conjugate formulations respectively: • Add 25 μl/well of sample or standard (0-1000 ng/ml CLF in Buffer #24) to the wells of a streptavidin-coated microtitre plate (NovAssay, F2SAC). • Add 100 μl/well of fluorescein-biotin (Sigma B9431) at 20 ng/ml in Buffer #24+0.2% w/v ANS (Sigma 10417). • Add 100 μl/well of anti-fluorescein HRP (NovAssay, DV047/17-3) at 100 ng/ml in Buffer #24. • Incubate the plate for 30 minutes at room temperature. • Wash the plate 3 times with 800 μl/well Buffer #29 and tap the plate dry. • Add 100 μl/well of SureBlue Reserve TMB Substrate (KPL) and incubate the plate for 10 minutes at room temperature. • Stop the substrate reaction by adding 100 μl/well of 1M HCl and read the absorbance at 450 nm wavelength (ThermoFisher Scientific, Multiskan FC).
Standards were prepared by spiking CLF into buffer (6 standards having a concentration span of 0 to 1000 ng/ml). The standards were stored at 2-8° C. for 4 weeks. They were then taken out of the fridge and assayed alongside standards that were freshly made.

[3] = Solubility and stability of CLF in working solutions by HPLC-UV-MS (254 nm); type: physicochemical; conditions: [CLF] = 50 μg/ml
Experimental: HPLC separation was operated with a mixture of water and acetonitrile containing 0.1% of formic acid and the reversed phase mode was selected. The injected volume of sample was 20 μl and the “full loop” mode was applied. The temperature of the analytical column was kept at 30° C. CLF, its metabolites and its IS were separated on a SunFire C18 column (5 μm, 2.1×100 mm, Waters) by elution with a linear gradient of acetonitrile in water as described in Table 62.
The wavelength of UV detector was scaled at 254 nm. An ion trap mass spectrometer equipped with electrospray ionization (ESI) interface was operated in positive ionization mode. Detection was carried out in the following modes: • MS mode (full scan) in positive ESI for analysis of working and treatment solutions and metabolites identification, • MS/MS mode (MRM, multiple reaction monitoring) in positive ESI for qualitative analysis of CLF, its IS and its metabolites. Briefly, specific parent ions formed for CLF, its IS and its identified metabolites were selected for MS/MS fragmentations.
Two working solutions of CLF were prepared. The first was prepared in 100% methanol for a final concentration of CLF at 109.6 μg/ml (SS CLF-MetOH) and the second was prepared in aqueous ethanol (water/ethanol/sodium hydroxide (50%), at 1000/500/30, v/v/v) for a final concentration of CLF at 71.6 μg/ml (SS CLF-EtOH).
Working solution used during this study were centrifuged 5 min at 3000 g and then diluted in a methanol/water mixture (50/50, v/v) in order to obtain three homogeneous solutions at 50 μg/ml. Then, 200 μl were transferred into 1.2 ml HPLC glass vials and sealed. Samples were placed into the refrigerated auto-sampler and 20 μl were injected into the HPLC-UV-MS system.
A blank sample was included (methanol/water, 50/50, v/v) to clearly distinguish interferences and impurities. The UV detection (scaled at 254 nm) allowed evaluating the solubility of CLF in both solvents by comparing CLF chromatographic peak areas. In case of signs of instability (additional chromatographic peaks), MS and then MS/MS (if needed) detections allowed to identify the impurities formed.

[4] = Fresh std 16 ng/ml, 4 weeks at 2-8° C.
[5] = Fresh std 31 ng/ml, 4 weeks at 2-8° C.
[6] = Fresh std 63 ng/ml, 4 weeks at 2-8° C.
[7] = Fresh std 125 ng/ml, 4 weeks at 2-8° C.
[8] = Fresh std 250 ng/ml, 4 weeks at 2-8° C.
[9] = Fresh std 500 ng/ml, 4 weeks at 2-8° C.
[10] = Fresh std 1000 ng/ml, 4 weeks at 2-8° C.

Q: What does the source list for `CC(CCC(=O)NC(CCCCNC(=S)Nc1ccc(-c2c3ccc(=O)cc-3oc3cc(O)ccc23)c(C(=O)O)c1)C(=O)O)C1CCC2C3C(O)CC4CC(O)CCC4(C)C3CC(O)C12C` [CLF, Cholyl-L-Lysyl-Fluorescein]?
A: CLF stability in whole human blood ([1]; 37° C., 24 hours, 100 ng/ml): stable during 24 h; also recorded: stable over 24 hours; plasmatic concentrations measured ([1]; whole blood spiked with 100 ng/ml, 37° C., 0-24 h): 165.1 to 180.3 ng/mL; repartition of CLF in blood ([1]; whole blood spiked with CLF, plasma prepared by centrifugation): mainly distributed in the plasmatic fraction; also recorded: mainly distributed in the plasma fraction; percentage of compound remaining (by comparing with content at To), lowest over incubation ([1]; whole blood, 37° C., up to 24 h): at least 104.1%; CLF concentration ([1]; 37° C., 0.0 hours, plasmatic concentration): 165.1 ± 2.6 ng/mL; CLF concentration ([1]; 37° C., 0.5 hours): 171.9 ± 6.7 ng/mL; CLF concentration ([1]; 37° C., 2.0 hours): 180.3 ± 7.4 ng/mL; CLF concentration ([1]; 37° C., 24.0 hours): 173.8 ± 1.7 ng/mL; CLF remaining ([1]; 37° C., 0.0 hours): 100.0%; CLF remaining ([1]; 37° C., 0.5 hours): 104.1%; CLF remaining ([1]; 37° C., 2.0 hours): 109.2%; CLF remaining ([1]; 37° C., 24.0 hours): 105.3%; 4-week stds [2, 4]: 5 ng/mL; % change in CLF immunoreactivity [2, 4]: −67%; 4-week stds [2, 5]: 17 ng/mL; % change in CLF immunoreactivity [2, 5]: −44%; 4-week stds [2, 6]: 38 ng/mL; % change in CLF immunoreactivity [2, 6]: −40%; 4-week stds [2, 7]: 72 ng/mL; % change in CLF immunoreactivity [2, 7]: −42%; 4-week stds [2, 8]: 162 ng/mL; % change in CLF immunoreactivity [2, 8]: −35%; 4-week stds [2, 9]: 359 ng/mL; % change in CLF immunoreactivity [2, 9]: −28%; 4-week stds [2, 10]: 685 ng/mL; % change in CLF immunoreactivity [2, 10]: −31%; mean OD, 4-week old stds ([2]; buffer standard 16 ng/ml, 4 weeks at 2-8° C.): 3.219; mean OD, fresh ([2]; buffer standard 16 ng/ml): 2.745; mean OD, 4-week old stds ([2]; buffer standard 31 ng/ml, 4 weeks at 2-8° C.): 2.699; mean OD, fresh ([2]; buffer standard 31 ng/ml): 2.265; mean OD, 4-week old stds ([2]; buffer standard 63 ng/ml, 4 weeks at 2-8° C.): 2.133; mean OD, fresh ([2]; buffer standard 63 ng/ml): 1.653; mean OD, 4-week old stds ([2]; buffer standard 125 ng/ml, 4 weeks at 2-8° C.): 1.577; mean OD, fresh ([2]; buffer standard 125 ng/ml): 0.884; mean OD, 4-week old stds ([2]; buffer standard 250 ng/ml, 4 weeks at 2-8° C.): 0.953; mean OD, fresh ([2]; buffer standard 250 ng/ml): 0.661; mean OD, 4-week old stds ([2]; buffer standard 500 ng/ml, 4 weeks at 2-8° C.): 0.528; mean OD, fresh ([2]; buffer standard 500 ng/ml): 0.419; mean OD, 4-week old stds ([2]; buffer standard 1000 ng/ml, 4 weeks at 2-8° C.): 0.317; mean OD, fresh ([2]; buffer standard 1000 ng/ml): 0.235; decrease in immunoreactivity ([2]; 4 weeks at 2-8 C.): resulted in a 30-40% decrease in; decrease in immunoreactivity ([2]; 4 weeks at 2-8° C., vs fresh standards): 30-40%; Peak Area, UV detection (254 nm) ([3]; Aqueous ammonium bicarbonate solution (0.1M), other batch of CLF): 5305.5*; peak area of CLF in aqueous ethanol mixture relative to methanol and aqueous ammonium bicarbonate 0.1 M (fold lower) ([3]; HPLC-UV 254 nm, water/ethanol/sodium hydroxide working solution): around 10 fold; Peak Area, UV detection (254 nm) ([3]; SS CLF-EtOH working solution): 470.9; Peak Area, UV detection (254 nm) ([3]; SS CLF-MetOH working solution): 4395.1
